Measured values from US20150284399A1, “PROCESSES FOR THE PREPARATION OF S1P1 RECEPTOR MODULATORS AND CRYSTALLINE FORMS THEREOF” (Arena Pharmaceuticals, Inc., priority 2010, published 2015).
Read-outs that look alike come from different tables or passages of the source.

Key:
[1] = Dynamic moisture sorption (DMS); format: physicochemical; conditions: crystalline form
Description: Samples are prepared for dynamic moisture-sorption analysis by placing ˜5 mg to ˜20 mg of compound in a tarred sample holder on the VTI balance. The instrument is a dynamic moisture-sorption analyzer, VTI Corporation, SGA-100. A drying step is run at 40° C. and ˜1% RH for 1 h. The isotherm temperature is 25° C. A % weight change over 10 min (5 weight readings) of dm/dt=0.010 or 2 h, whichever occurs first, is required before continuing to the next step. The water content of the sample equilibrated as described above was determined from 30% RH to 90% RH and then back down to 10% RH.

[2] = tested on: rat cardiac allograft model; conditions: cited from earlier work
keratinocytes = conditions: Kim et al. 2004; cited from earlier work
S1P2 receptor = S1P2 receptor (Homo sapiens, UniProt O95136); conditions: Chiba 2005; cited from earlier work
S1P4 receptor = target: T1, S1P4 receptor (Homo sapiens, UniProt O95977); conditions: Chiba 2005; cited from earlier work
T1 sequence (O95977 1-384): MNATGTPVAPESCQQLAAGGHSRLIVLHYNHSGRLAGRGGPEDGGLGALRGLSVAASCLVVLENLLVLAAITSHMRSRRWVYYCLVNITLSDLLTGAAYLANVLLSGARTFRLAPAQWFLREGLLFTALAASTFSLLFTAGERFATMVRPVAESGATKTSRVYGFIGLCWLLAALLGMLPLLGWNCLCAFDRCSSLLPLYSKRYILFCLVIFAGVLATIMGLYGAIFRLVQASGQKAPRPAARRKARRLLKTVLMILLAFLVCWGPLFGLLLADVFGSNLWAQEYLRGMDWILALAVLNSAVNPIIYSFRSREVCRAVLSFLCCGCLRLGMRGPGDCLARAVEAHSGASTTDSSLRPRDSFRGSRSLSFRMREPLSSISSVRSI

S1P5 receptor = S1P5 receptor (Homo sapiens, UniProt Q9H228); conditions: Chiba 2005; cited from earlier work
[3] = unlike cyclosporin A, FK506 and RAD; cited from earlier work
human islet cells = conditions: cited from earlier work
[4] = attributed to agonism of the S1P3 receptor; cited from earlier work
[5] = organ transplantation; cited from earlier work
[6] = tested on: type I diabetic vascular endothelium; conditions: Whetzel et al. 2006; cited from earlier work
vasculature = conditions: Bolick et al. 2005; cited from earlier work
Male BALB/c mice = test: Mouse Peripheral Lymphocyte Lowering (PLL) assay; format: in vivo; conditions: 0.300 mg/kg oral dose in 0.5% methyl cellulose in water; 5 hours post-dose; vs vehicle; FIG. 15
Description: Male BALB/c mice (Charles River Laboratories, Wilmington, Mass.) were housed four per cage and maintained in a humidity-controlled (40 to 60%) and temperature-controlled (68 to 72° F.) facility on a 12 h: 12 h light/dark cycle (lights on at 6:30 am) with free access to food (Harlan Teklad, Orange, Calif., Rodent Diet 8604) and water. Mice were allowed (approximately) one week of habituation to the animal facility before testing.
Mice were given a 0.300 mg/kg oral dose of (R)-2-(9-chloro-7-(4-isopropoxy-3-(trifluoromethyl)benzyloxy)-2,3-dihydro-1H-pyrrolo[1,2-a]indol-1-yl)acetic acid L-lysine salt or dosing vehicle (0.5% methyl cellulose in water) in a total volume of 10 mL/kg. Peripheral blood samples were collected at 5 hours post-dose. The mice were anesthetized with isoflurane and blood was collected via cardiac puncture. A complete cell count (CBC), including lymphocyte count, was obtained using a CELL-DYN® 3700 (Abbott Laboratories, Abbott Park, Ill.) instrument. Results are presented in FIG. 15, in which peripheral blood lymphocyte (PBL) count is shown for the 5 hour group.

Female C57BL/6 mice = test: MOG-induced experimental autoimmune encephalomyelitis (EAE) in mice; format: in vivo, mouse; conditions: oral, once a day from day 3 until day 21; 0.1, 0.3 and 1.0 mg/kg; vs vehicle; FIG. 17
[7] = tested on: rat model for autoimmune myocarditis; conditions: cited from earlier work
[8] = tested on: rat renal allograft model; conditions: combination with mycophenolate mofetil (MMF); cited from earlier work
rat skin allograft model = conditions: monotherapy; cited from earlier work

Chain of S1P5 receptor (Q9H228 whole entry): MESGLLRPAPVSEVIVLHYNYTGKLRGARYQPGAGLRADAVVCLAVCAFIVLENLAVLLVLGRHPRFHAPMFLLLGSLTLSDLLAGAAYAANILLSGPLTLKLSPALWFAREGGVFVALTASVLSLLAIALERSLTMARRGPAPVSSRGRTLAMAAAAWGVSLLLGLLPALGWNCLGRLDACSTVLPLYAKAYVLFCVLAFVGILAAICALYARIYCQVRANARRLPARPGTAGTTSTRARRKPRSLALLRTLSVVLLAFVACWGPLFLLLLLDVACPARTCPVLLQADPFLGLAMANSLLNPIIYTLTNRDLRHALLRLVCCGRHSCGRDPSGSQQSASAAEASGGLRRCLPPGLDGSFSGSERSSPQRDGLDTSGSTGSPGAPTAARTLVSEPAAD
Chain of S1P2 receptor (O95136 whole entry): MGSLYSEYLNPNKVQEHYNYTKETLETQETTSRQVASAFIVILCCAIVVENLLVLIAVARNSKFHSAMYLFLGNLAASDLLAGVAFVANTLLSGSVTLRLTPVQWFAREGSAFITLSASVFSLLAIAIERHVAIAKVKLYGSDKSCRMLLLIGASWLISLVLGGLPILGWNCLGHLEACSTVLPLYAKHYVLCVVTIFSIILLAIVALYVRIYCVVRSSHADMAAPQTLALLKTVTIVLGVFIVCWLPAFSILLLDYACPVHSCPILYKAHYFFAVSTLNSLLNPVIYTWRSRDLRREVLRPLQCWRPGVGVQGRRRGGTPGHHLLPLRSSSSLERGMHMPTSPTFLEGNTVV

Molecule: CC(C)Oc1ccc(COc2ccc3c(c2)c(Cl)c2n3CC[C@@H]2CC(=O)[O-])cc1C(F)(F)F.O.[Na+] [(R)-2-(9-chloro-7-(4-isopropoxy-3-(trifluoromethyl)benzyloxy)-2,3-dihydro-1H-pyrrolo[1,2-a]indol-1-yl)acetic acid sodium salt hydrate]
- DMS weight gain at about 90% relative humidity ([1]; from about 30% RH to about 90% RH at 25° C.): FIG. 9: gains about 2.5% weight at about 90% relative humidity

Molecule: O=C(O)CCNCc1ccc2sc(-c3ccc(-c4ccccc4)c(C(F)(F)F)c3)cc2c1 [AUY954]
- prolonging allograft survival ([2]; combination with a subtherapeutic dose of RAD001): can prolong rat cardiac allograft survival

Molecule: CC(C)Oc1ccc(COc2ccc3c(c2)c(Cl)c2n3CC[C@@H]2CC(=O)O)cc1C(F)(F)F.NCCN.O [(R)-2-(9-chloro-7-(4-isopropoxy-3-(trifluoromethyl)benzyloxy)-2,3-dihydro-1H-pyrrolo[1,2-a]indol-1-yl)acetic acid ethylenediamine salt hydrate]
- DMS weight gain after adsorption cycle to about 90% RH followed by desorption cycle back to about 10% RH [1]: 25° C.; gains less than about 1.5% weight after undergoing

Molecule: CCCCCCCCCCCCC/C=C/[C@@H](O)[C@@H](N)COP(=O)(O)O [Compound S1P, sphingosine-1-phosphate]
- keratinocyte proliferation (keratinocytes): inhibits keratinocyte proliferation

Molecule: CCCCCCCCc1ccc(CCC(N)(CO)COP(=O)(O)O)cc1 (centres unmarked) [phosphorylated derivative]
- agonist activity on S1P2 receptor (S1P2 receptor): not the S1P2 receptor
- agonist activity on S1P4 receptor (S1P4 receptor): agonist
- agonist activity on S1P5 receptor (S1P5 receptor): agonist

Molecule: CCCCCCCCc1ccc(CCC(N)(CO)CO)cc1 [FTY720, fingolimod]
- general immunosuppression while prolonging graft survival [3]: without inducing general immunosuppression
- effects on human islet function (human islet cells): no detrimental effects on human islet function
- adverse event in clinical trials [4]: transient asymptomatic bradycardia

Molecule: C=CC[C@@H]1/C=C(\C)C[C@H](C)C[C@H](OC)[C@H]2O[C@@](O)(C(=O)C(=O)N3CCCC[C@H]3C(=O)O[C@H](/C(C)=C/[C@@H]3CC[C@@H](O)[C@H](OC)C3)[C@H](C)[C@@H](O)CC1=O)[C@H](C)C[C@@H]2OC [FK506]
- undesirable side effects [5]: nephrotoxicity, neurotoxicity, β-cell toxicity and gastrointestinal discomfort

Molecule: FC(F)(F)c1cccc(-c2noc(-c3cc(-c4ccccc4)c(C(F)(F)F)s3)n2)c1 [SEW2871]
- proinflammatory monocyte/endothelial interactions [6]: prevents proinflammatory monocyte/endothelial interactions
- protection against TNFα-mediated monocyte/endothelial interactions (vasculature): protects the vasculature against TNFα-mediated monocyte/endothelial interactions

Molecule: (R)-2-(9-Chloro-7-(4-isopropoxy-3-(trifluoromethyl)benzyloxy)-2,3-dihydro-1H-pyrrolo[1,2-a]indol-1-yl)acetic acid L-lysine salt
- peripheral blood lymphocyte (PBL) lowering (lymphopenia) (Male BALB/c mice): exhibited activity for inducing PBL lowering (lymphopenia)
- reduction of the severity of disease symptoms (clinical score) in EAE (Female C57BL/6 mice): exhibits therapeutic efficacy in EAE
- DMS weight gain at a 90% RH hold ([1]; 90% RH hold at 25° C.): FIG. 6: gains less than about 2.2% weight at a 90% RH hold at
- DMS weight gain after adsorption cycle to about 90% RH followed by desorption cycle back to about 10% RH [1]: 25° C.; gains less than about 0.25% weight after undergoing a

Molecule: NC(CO)(CO)CCc1ccc(Sc2cccc(OCc3ccccc3)c2)cc1Cl [KRP-203]
- therapeutic efficacy [7]: therapeutic efficacy
- prolonging allograft survival [8]: therapeutic efficacy in combination with mycophenolate mofetil
- prolonging allograft survival ([2]; combination with cyclosporin A): synergistic combination with cyclosporin A
- prolonging allograft survival ([2]; combination with mycophenolate mofetil (MMF)): therapeutic efficacy in combination with mycophenolate mofetil
- prolonging allograft survival ([2]; monotherapy): therapeutic efficacy for prolonging allograft survival
- prolonging allograft survival (rat skin allograft model): therapeutic efficacy for prolonging allograft survival
